This note sets out measurements from patent US8119692B2 (priority 2007, dated 2012).

The target in the assay is Lethal factor protease (Bacillus anthracis, UniProt P15917). Nature of the assay: biochemical. The following applies: LF (FRET) Ki^app.
Lethal factor protease, sequence (P15917 34-809 limits assumed): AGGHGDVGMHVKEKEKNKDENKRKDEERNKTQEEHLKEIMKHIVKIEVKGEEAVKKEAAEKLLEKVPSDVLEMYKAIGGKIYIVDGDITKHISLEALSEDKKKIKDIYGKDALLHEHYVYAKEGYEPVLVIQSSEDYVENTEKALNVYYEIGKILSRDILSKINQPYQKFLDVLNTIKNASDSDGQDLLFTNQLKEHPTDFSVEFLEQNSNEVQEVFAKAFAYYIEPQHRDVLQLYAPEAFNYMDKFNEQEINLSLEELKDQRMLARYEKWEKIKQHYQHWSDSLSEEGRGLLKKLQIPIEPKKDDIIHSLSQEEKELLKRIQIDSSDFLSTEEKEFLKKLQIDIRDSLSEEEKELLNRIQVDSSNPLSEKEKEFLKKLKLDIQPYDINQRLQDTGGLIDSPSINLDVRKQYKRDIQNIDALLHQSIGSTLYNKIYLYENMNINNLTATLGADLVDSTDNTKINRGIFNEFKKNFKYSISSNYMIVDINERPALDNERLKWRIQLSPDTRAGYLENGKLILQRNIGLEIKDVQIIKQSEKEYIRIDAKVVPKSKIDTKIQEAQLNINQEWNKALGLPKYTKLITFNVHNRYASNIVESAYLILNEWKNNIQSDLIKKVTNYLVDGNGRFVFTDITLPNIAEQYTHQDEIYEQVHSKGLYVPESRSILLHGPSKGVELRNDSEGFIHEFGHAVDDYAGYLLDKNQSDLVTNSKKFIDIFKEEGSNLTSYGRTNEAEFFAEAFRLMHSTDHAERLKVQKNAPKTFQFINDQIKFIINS
For `COC(CCC(=O)NO)c1cccc(C)c1C` (stereo not drawn) [Compound 167495, 4-(2,3-dimethylphenyl)-N-hydroxy-4-methoxybutanamide], the Ki was 269 µM.

In turn, `COC(CCC(=O)NO)c1ccc(-c2ccccc2)cc1` (stereo not drawn) [Compound 167506, 4-(biphenyl-4-yl)-N-hydroxy-4-methoxybutanamide] came in with a Ki of 85.1 µM.

In turn, `COC(CCC(=O)NO)c1ccc(C(F)(F)F)cc1` (stereo not drawn) [Compound 167511, N-hydroxy-4-methoxy-4-(4-(trifluoromethyl)phenyl)butanamide] came in with a Ki of 240 µM.

Regarding `COC(CCC(=O)NO)c1ccccc1C` (stereo not drawn) [Compound 167540, N-hydroxy-4-methoxy-4-o-tolylbutanamide], the Ki amounted to 152 µM.

Turning to `COC(CCC(=O)NO)c1ccc(C)cc1C` (stereo not drawn) [Compound 167541, 4-(2,4-dimethylphenyl)-N-hydroxy-4-methoxybutanamide], the Ki was 134 µM.

Regarding `COC(CCC(=O)NO)c1ccccc1F` (stereo not drawn) [Compound 167564, 4-(2-fluorophenyl)-N-hydroxy-4-methoxybutanamide], the Ki worked out at 52.4 µM.

As for `C=CC[C@H](C[C@@H](OC)c1ccc(F)c(C)c1)C(=O)NO` [Compound 167672, (2R)-2-((2R)-2-(4-fluoro-3-methylphenyl)-2-methoxyethyl)-N-hydroxypent-4-enamide], the Ki was found to be 42 µM.

As to `C=CC[C@@H](C[C@@H](OC)c1ccc(F)c(C)c1)C(=O)NO` [Compound 167673, (S)-2-((R)-2-(4-Fluoro-3-methylphenyl)-2-methoxyethyl)-N-hydroxypent-4-enamide], the Ki worked out at 6.6 µM.

Regarding `CCC[C@H](C[C@@H](OC)c1ccc(F)c(C)c1)C(=O)NO` [Compound 167674, (2R)-2-((2R)-2-(4-fluoro-3-methylphenyl)-2-methoxyethyl)-N-hydroxypentanamide], the Ki was 24 µM.

For the compound `CCC[C@@H](C[C@@H](OC)c1ccc(F)c(C)c1)C(=O)NO` [Compound 167675, (2S)-2-((2R)-2-(4-fluoro-3-methylphenyl)-2-methoxyethyl)-N-hydroxypentanamide], the Ki was 2.6 µM.

As to `CO[C@H](C[C@H](CCN(Cc1ccccc1)C(C)C)C(=O)NO)c1ccc(F)cc1` [Compound 167784, (2S,4R)-2-(2-(benzyl(isopropyl)amino)ethyl)-4-(4-fluorophenyl)-N-hydroxy-4-methoxybutanamide], the Ki came out at 14 µM.

`CO[C@H](C[C@H](CCN(C)Cc1ccccc1)C(=O)NO)c1ccc(F)cc1` [Compound 167785, (2S,4R)-2-(2-(benzyl(methyl)amino)ethyl)-4-(4-fluorophenyl)-N-hydroxy-4-methoxybutanamide] gave a Ki of 2 µM.

For `CO[C@H](C[C@H](CCN(C)Cc1ccc(F)cc1)C(=O)NO)c1ccc(F)cc1` [Compound 167795, (2S,4R)-2-(2-((4-fluorobenzyl)(methyl)amino)ethyl)-4-(4-fluorophenyl)-N-hydroxy-4-methoxybutanamide], the Ki worked out at 2.1 µM.

Compound `CO[C@H](C[C@H](CCN(c1ccccc1)c1ccccc1)C(=O)NO)c1ccc(F)cc1` [Compound 167796, (2S)-(2-Diphenylamino-ethyl)-(4R)-(4-fluoro-phenyl)-N-hydroxy-4-methoxy-butyramide] had a Ki of 2.1 µM.

As to `CCCCN(C)CC[C@@H](C[C@@H](OC)c1ccc(F)cc1)C(=O)NO` [Compound 167828, (2S,4R)-2-(2-(butyl(methyl)amino)ethyl)-4-(4-fluorophenyl)-N-hydroxy-4-methoxybutanamide], the Ki turned out to be 1.1 µM.

For the compound `CO[C@H](C[C@H](CCN1CCOCC1)C(=O)NO)c1ccc(F)cc1` [Compound 167829, (2S,4R)-4-(4-fluorophenyl)-N-hydroxy-4-methoxy-2-(2-morpholinoethyl)butanamide], the Ki worked out at 5.7 µM.

Compound `CO[C@H](C[C@H](CCN1CCC(F)(F)CC1)C(=O)NO)c1ccc(F)cc1` [Compound 167884, (2S,4R)-2-(2-(4,4-difluoropiperidin-1-yl)ethyl)-4-(4-fluorophenyl)-N-hydroxy-4-methoxybutanamide] yielded a Ki of 2.2 µM.

In the case of `CO[C@H](C[C@H](CCN1CCCC(CO)C1)C(=O)NO)c1ccc(F)cc1` (stereo partly drawn) [Compound 167885, (2S,4R)-4-(4-fluorophenyl)-N-hydroxy-2-(2-(3-(hydroxymethyl)piperidin-1-yl)ethyl)-4-methoxybutanamide], the Ki turned out to be 0.76 µM.

As to `CO[C@H](C[C@H](CCN1CCCCC1)C(=O)NO)c1ccc(F)cc1` [Compound 167889, (2S,4R)-4-(4-fluorophenyl)-N-hydroxy-4-methoxy-2-(2-(piperidin-1-yl)ethyl)butanamide], the Ki was 1.5 µM.

In the case of `CO[C@H](C[C@H](CCN(C)CCOc1ccccc1)C(=O)NO)c1ccc(F)cc1` [Compound 167890, (2S,4R)-4-(4-fluorophenyl)-N-hydroxy-4-methoxy-2-(2-(methyl(2-phenoxyethyl)amino)ethyl)butanamide], the Ki was found to be 1.6 µM.

As to `CO[C@H](C[C@H](CCN1CCc2ccccc2C1)C(=O)NO)c1ccc(F)cc1` [Compound 167891, (2S,4R)-2-(2-(3,4-dihydroisoquinolin-2(1H)-yl)ethyl)-4-(4-fluorophenyl)-N-hydroxy-4-methoxybutanamide], the Ki came out at 0.92 µM.

Compound `CO[C@H](C[C@H](CCN1CCCCCC1)C(=O)NO)c1ccc(F)cc1` [Compound 167911, (2S,4R)-2-(2-(azepan-1-yl)ethyl)-4-(4-fluorophenyl)-N-hydroxy-4-methoxybutanamide] displayed a Ki of 69.5 µM.

In turn, `CO[C@H](C[C@H](CCN1CCCCCCC1)C(=O)NO)c1ccc(F)cc1` [Compound 167912, (2S,4R)-2-(2-(azocan-1-yl)ethyl)-4-(4-fluorophenyl)-N-hydroxy-4-methoxybutanamide] had a Ki of 284 µM.

The compound `CO[C@H](C[C@H](CCN(C)CCO)C(=O)NO)c1ccc(F)cc1` [Compound 167922] gave a Ki of 1.49 µM.

`CO[C@H](C[C@H](CCN1CCCC1)C(=O)NO)c1ccc(F)cc1` [Compound 167923, (2S,4R)-4-(4-fluorophenyl)-N-hydroxy-4-methoxy-2-(2-(pyrrolidin-1-yl)ethyl)butanamide]: the Ki was 0.97 µM.

The compound `CO[C@H](C[C@H](CCN1CCCC(C(=O)O)C1)C(=O)NO)c1ccc(F)cc1` (stereo partly drawn) [Compound 167924, 1-((3S,5R)-5-(4-fluorophenyl)-3-(hydroxycarbamoyl)-5-methoxypentyl)piperidine-3-carboxylic acid] gave a Ki of 9 µM.

For `CO[C@H](C[C@H](CCN1CCC(Cc2ccccc2)CC1)C(=O)NO)c1ccc(F)cc1` [Compound 167940, (2S,4R)-2-(2-(4-benzylpiperidin-1-yl)ethyl)-4-(4-fluorophenyl)-N-hydroxy-4-methoxybutanamide], the Ki was determined as 0.4 µM.

In turn, `CO[C@H](C[C@H](CCN1CCN(C(=O)OC(C)(C)C)CC1)C(=O)NO)c1ccc(F)cc1` [Compound 167944, tert-butyl 4-((3S,5R)-5-(4-fluorophenyl)-3-(hydroxycarbamoyl)-5-methoxypentyl)piperazine-1-carboxylate] yielded a Ki of 2.5 µM.

For `CO[C@H](C[C@H](CCN(C)CCc1ccccc1)C(=O)NO)c1ccc(F)cc1` [Compound 167952, (2S,4R)-4-(4-fluorophenyl)-N-hydroxy-4-methoxy-2-(2-(methyl(phenethyl)amino)ethyl)butanamide], the Ki was determined as 0.77 µM.

The compound `CO[C@H](C[C@H](CCN(C)CCCc1ccccc1)C(=O)NO)c1ccc(F)cc1` [Compound 167953, (2S,4R)-4-(4-fluorophenyl)-N-hydroxy-4-methoxy-2-(2-(methyl(3-phenylpropyl)amino)ethyl)butanamide] had a Ki of 0.23 µM.

The compound `CO[C@H](C[C@H](CCN(C)C)C(=O)NO)c1ccc(F)cc1` [Compound 167954, (2S,4R)-2-(2-(dimethylamino)ethyl)-4-(4-fluorophenyl)-N-hydroxy-4-methoxybutanamide] yielded a Ki of 0.97 µM.

`CO[C@H](C[C@H](CCN1CCNCC1)C(=O)NO)c1ccc(F)cc1` [Compound 167955, (2S,4R)-4-(4-fluorophenyl)-N-hydroxy-4-methoxy-2-(2-(piperazin-1-yl)ethyl)butanamide]: the Ki is 0.83 µM.

In turn, `CO[C@H](C[C@H](CCN1CCN(CCc2ccccc2)CC1)C(=O)NO)c1ccc(F)cc1` [Compound 167958, (2S,4R)-4-(4-fluorophenyl)-N-hydroxy-4-methoxy-2-(2-(4-phenethylpiperazin-1-yl)ethyl)butanamide] had a Ki of 2.4 µM.

For the compound `CO[C@H](C[C@H](CCN1CCN(CCCc2ccccc2)CC1)C(=O)NO)c1ccc(F)cc1` [Compound 167959, (2S,4R)-4-(4-fluorophenyl)-N-hydroxy-4-methoxy-2-(2-(4-(3-phenylpropyl)piperazin-1-yl)ethyl)butanamide], the Ki was found to be 1 µM.

On to `CO[C@H](C[C@H](CCN1CCN(Cc2ccc(F)c(C)c2)CC1)C(=O)NO)c1ccc(F)cc1` [Compound 167960, (2S,4R)-2-(2-(4-(4-fluoro-3-methylbenzyl)piperazin-1-yl)ethyl)-4-(4-fluorophenyl)-N-hydroxy-4-methoxybutanamide], for which the Ki was 0.97 µM.

For the compound `CO[C@H](C[C@H](CCN1CCN(CC2CCCCC2)CC1)C(=O)NO)c1ccc(F)cc1` [Compound 167961, (2S,4R)-2-(2-(4-(cyclohexylmethyl)piperazin-1-yl)ethyl)-4-(4-fluorophenyl)-N-hydroxy-4-methoxybutanamide], the Ki was found to be 1.8 µM.

Turning to `CO[C@H](C[C@H](CCN1CCN(Cc2ccccc2)CC1)C(=O)NO)c1ccc(F)cc1` [Compound 167962, (2S,4R)-2-(2-(4-benzylpiperazin-1-yl)ethyl)-4-(4-fluorophenyl)-N-hydroxy-4-methoxybutanamide], the Ki was 1.9 µM.

As for `CO[C@H](C[C@H](CCN1CCN(c2ccccc2)CC1)C(=O)NO)c1ccc(F)cc1` [Compound 167986, (2S,4R)-4-(4-fluorophenyl)-N-hydroxy-4-methoxy-2-(2-(4-phenylpiperazin-1-yl)ethyl)butanamide], the Ki came to 2.22 µM.

On to `CO[C@H](C[C@H](CCN1CCC(c2ccccc2)CC1)C(=O)NO)c1ccc(F)cc1` [Compound 167987, (2S,4R)-4-(4-fluorophenyl)-N-hydroxy-4-methoxy-2-(2-(4-phenylpiperidin-1-yl)ethyl)butanamide], for which the Ki was determined as 0.76 µM.
